Test results taken from patent publication US20020183290A1, “Adrenergic receptor antagonists selective for both alpha1A-and alpha1D-subtypes and uses therefor” (Recordati S.A., Chemical and Pharmaceutical Company, priority 2001, published 2002).
Where two headings read alike, the source gives them in different places.

How the values were obtained:
[1] = biological target: T1, cloned α1a-adrenoceptor subtype (Homo sapiens, UniProt P35348); experiment: Radioligand binding assay ([3H]prazosin), cloned α1a-adrenoceptor subtype; details: read-out: Binding Affinity (Ki nM) α1a
T1 construct: expressed in transfected cells
T1 sequence (P35348 1-466): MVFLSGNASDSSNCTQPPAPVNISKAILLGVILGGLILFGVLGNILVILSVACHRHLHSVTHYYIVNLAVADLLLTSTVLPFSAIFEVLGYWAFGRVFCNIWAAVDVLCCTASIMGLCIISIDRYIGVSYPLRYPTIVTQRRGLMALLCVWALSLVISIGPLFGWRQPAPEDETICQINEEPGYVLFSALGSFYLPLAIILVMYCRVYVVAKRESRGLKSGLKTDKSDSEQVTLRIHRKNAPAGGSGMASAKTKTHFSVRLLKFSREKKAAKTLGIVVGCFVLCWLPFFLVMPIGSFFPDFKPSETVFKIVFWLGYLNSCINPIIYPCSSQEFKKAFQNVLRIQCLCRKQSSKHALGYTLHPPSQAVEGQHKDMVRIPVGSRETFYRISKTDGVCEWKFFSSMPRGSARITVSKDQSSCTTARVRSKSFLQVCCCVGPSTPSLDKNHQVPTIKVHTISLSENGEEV
Procedure: (§1) Springer-Verlag, pp. 10-12). […] The results from these assays are used to calculate a measure of receptor selectivity, expressed as the ratio of affinities (Ki) for a given pair of receptors.
(§2) Determination of affinity for cloned subtypes of α1-adrenoceptor subtypes was performed in membranes from cells transfected by electroporation with DNA expressing the genes encoding each α1-adrenoceptor subtype.
(§3) Non-specific binding was determined in the presence of 10 μM phentolamine. Incubation was stopped by addition of ice-cold Tris buffer and rapid filtration through 0.2% polyethyleneimine-pretreated Schleicher & Schuell GF52 filters. […] Data were expressed as mean Ki.

[2] = biological target: T2, cloned α1d-adrenoceptor subtype (Homo sapiens, UniProt P25100); experiment: Radioligand binding assay ([3H]prazosin), cloned α1d-adrenoceptor subtype; details: read-out: Binding Affinity (Ki nM) α1d
T2 construct: expressed in transfected cells
T2 sequence (P25100 1-572): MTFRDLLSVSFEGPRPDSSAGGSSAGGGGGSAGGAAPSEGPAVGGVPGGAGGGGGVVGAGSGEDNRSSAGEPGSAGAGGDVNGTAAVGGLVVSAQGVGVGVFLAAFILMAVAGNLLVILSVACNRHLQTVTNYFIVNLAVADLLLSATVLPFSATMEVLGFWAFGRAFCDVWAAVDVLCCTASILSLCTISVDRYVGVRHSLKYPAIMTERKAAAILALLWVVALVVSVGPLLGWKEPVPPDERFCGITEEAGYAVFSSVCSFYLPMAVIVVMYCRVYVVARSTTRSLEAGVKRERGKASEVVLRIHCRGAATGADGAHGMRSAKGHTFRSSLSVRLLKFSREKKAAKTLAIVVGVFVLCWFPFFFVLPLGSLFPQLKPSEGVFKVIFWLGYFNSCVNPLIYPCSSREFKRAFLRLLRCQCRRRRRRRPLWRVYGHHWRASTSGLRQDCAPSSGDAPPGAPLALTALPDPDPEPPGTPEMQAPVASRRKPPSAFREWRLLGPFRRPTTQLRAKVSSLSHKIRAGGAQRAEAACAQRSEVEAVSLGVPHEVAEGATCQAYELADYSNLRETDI
Procedure: as §1, §2, §3

[3] = biological target: T3, cloned α1b-adrenoceptor subtype (Homo sapiens, UniProt P35368); experiment: Radioligand binding assay ([3H]prazosin), cloned α1b-adrenoceptor subtype; details: read-out: Binding Affinity (Ki nM) α1b
T3 construct: expressed in transfected cells
T3 sequence (P35368 1-520): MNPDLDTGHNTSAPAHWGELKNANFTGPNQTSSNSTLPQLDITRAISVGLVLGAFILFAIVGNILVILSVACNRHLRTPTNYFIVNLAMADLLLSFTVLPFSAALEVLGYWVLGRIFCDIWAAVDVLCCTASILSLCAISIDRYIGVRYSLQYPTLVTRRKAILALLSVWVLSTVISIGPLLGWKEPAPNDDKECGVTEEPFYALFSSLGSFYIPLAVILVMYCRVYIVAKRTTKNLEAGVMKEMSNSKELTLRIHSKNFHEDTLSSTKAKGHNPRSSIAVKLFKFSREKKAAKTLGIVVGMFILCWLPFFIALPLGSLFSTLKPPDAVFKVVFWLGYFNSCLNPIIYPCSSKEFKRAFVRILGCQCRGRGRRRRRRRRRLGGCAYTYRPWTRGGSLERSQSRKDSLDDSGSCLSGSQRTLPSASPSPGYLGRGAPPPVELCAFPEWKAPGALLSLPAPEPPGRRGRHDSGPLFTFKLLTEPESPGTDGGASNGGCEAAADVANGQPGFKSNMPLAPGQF
Procedure: as §1, §2, §3

[4] = system: conscious rats with partial urethral obstruction; experiment: Cystometry in conscious rats obstructed by partial urethra ligature (unstable-bladder contractions); assay type: in vivo, rat; details: for inhibition in vivo at 1 mg/kg / inhibition in vivo at 0.1 mg/kg / inhibition in vivo at 0.3 mg/kg / inhibition in vivo at 3 mg/kg: 2 min; for Amplitude of non-effective micturition contractions, After Treat. / Frequency (number) of non-effective micturition contractions, After Treat.: after treatment; for Activity as inhibitors of unstable-bladder contractions (in words): obstructed conscious rats, summary of Tables 1 and 2
Description: A useful animal model system for measuring such pharmacological activity is, without limitation, cystometry in conscious rats with partial bladder-neck obstruction. […] This model is reported in the literature as related to LUTS occurring in patients having obstructive urethral syndromes (Michel, 2000, Drugs of Today. 386 (Supp. B2): 3-6)
In order to obtain a partial obstruction of the urethra, the method previously reported by Malgren (Nalgren et al., 1987, J. Urol. 137:1291-1294; 1988, Neurourol. Urodyn. 6:371), was followed with minor modifications (Guarneri et al., 1991, Pharmacol. Res. 24:263).
Female rats of the Sprague-Dawley strain [Crl:CD(SD)BR, from Charles River Italia, Calco, Como, Italy] weighing 225-275 g were used. The animals were maintained in constant temperature and humidity conditions, on a forced 12-hour light-dark cycle and with food and water ad libitum for at least one week before the experiment.
After being anaesthetized with 3 ml/kg i.p. equitensin (pentobarbital 1.215 g, chloral hydrate 5.312 g, magnesium sulphate 2.657 g, ethanol 12.5 ml, propylene glycol 49.5 ml, distilled water to 125 ml of final volume), the rats were placed in a supine position and the bladder and urethra were exposed via an incision in the shaven abdomens and gently pulling away the muscle portion. The urethra was cannulated with a polyethylene tube with an outside diameter of 1.22 mm, and the urinary bladder was then emptied and, via the cannula introduced through the urethra, filled with physiological saline. A silk (Ethicon 3/0) ligature was placed around the urethra with the cannula inside and the intraurethral cannula was then removed. The abdominal incision was sutured and, immediately after the operative procedure, antibiotic medication (penicillin G 200 000 I.U./kg i.p. and streptomycin 260 mg/kg i.p.) was performed.
Three weeks after the procedure for partially obstructing the urethra, the animals were prepared for cystometry by surgical insertion into the bladder of a catheter, through which the bladder was gradually filled.
The rats, anaesthetised with equitensin 3 ml/kg i.p., were placed in a supine position and, via an incision of about 10 mm in the abdominal wall, the urinary bladder was exposed and gently freed from surrounding tissues.
The urinary bladder was emptied manually and cannulated, via a small incision at the bladder top, with a polyethylene cannula (type PE-50, 0.58 mm I.D. ×0.96 mm O.D.), which was permanently secured to the bladder with silk thread.
The cannula was exposed through a subcutaneous tunnel in the retroscapular area, where it was fastened with a plastic adapter, in order to avoid the risk of removal by the animal. After washing the urinary bladder with physiological saline, the catheter was sealed using a small flame and the abdominal incision was sutured.
To allow evaluation of the effect of a test compound after intravenous administration, the jugular vein was cannulated with a polyethylene cannula (type PE-50, 0.58 mm I.D.×0.96 mm O.D.) filled with heparinised physiological saline. As for the bladder catheter, this cannula, too, was exteriorised, secured and sealed in the retroscapular area.
Two days after the operation, the rats, fasted overnight, were placed in Bollman's cages or in Bollman's cages modified so as to have an opening in the bottom to allow collection of urinated fluid.
After an adaptation period of 20 minutes, the free end of the bladder cannula was connected to a pressure transducer and a special apparatus which allowed infusion into the urinary bladder of physiological saline at 37° C. at a constant rate of 10 ml/hour. Intravesical pressure changes caused by bladder filling were recorded by the pressure transducer which was connected to a recording polygraph.
From the cystometrograms, the frequency and mean amplitude of spontaneous bladder contractions not inducing micturition, termed “unstable-bladder contractions” (UBC), within 2 minutes prior to micturition were evaluated. […]

[5] = obstructed rat, 1 mg/kg, 2 minutes before micturition, read-out: % inhibition of amplitude of non-effective micturition contractions
[6] = obstructed rat, 1 mg/kg, 2 minutes before micturition, read-out: % inhibition of frequency of non-effective micturition contractions
[7] = cloned receptor, cell membranes, 0.2 nM [3H]prazosin, mean Ki
[8] = obstructed rat, 0.3 mg/kg, 2 minutes before micturition, read-out: % inhibition of amplitude of non-effective micturition contractions
[9] = obstructed rat, 0.3 mg/kg, 2 minutes before micturition, read-out: % inhibition of frequency of non-effective micturition contractions
[10] = Rattus norvegicus, read-out: % inhibition of amplitude of non-effective micturition contractions
[11] = Rattus norvegicus, read-out: % inhibition of frequency of non-effective micturition contractions

SMILES	Ki [1] [nM]	Ki [2] [nM]	Ki [3] [nM]	inhibition in vivo at 1 mg/kg [4, 5] [%]	inhibition in vivo at 1 mg/kg [4, 6] [%]	Amplitude of non-effective micturition contractions, After Treat. ([4]; 1.0 mg/kg) [mmHg]	Frequency (number) of non-effective micturition contractions, After Treat. ([4]; 1.0 mg/kg)	Activity as inhibitors of unstable-bladder contractions (in words) [4]	also measured
Cc1onc(-c2ccccc2)c1C(=O)NCCCN1CCN(c2cc(F)ccc2OCC(F)(F)F)CC1 [Compound C, N-{3-[4-[5-fluoro-2-(2,2,2-trifluoroethoxy)phenyl]-1-piperazinyl]propyl}-3-phenyl-5-methylisoxazole-4-carboxamide]	0.05	0.33							
Cc1onc(-c2ccccc2Cl)c1C(=O)NCCCN1CCN(c2ccccc2OCC(F)(F)F)CC1 [Compound D, 3-(2-chlorophenyl)-5-methyl-N-{3-[4-[2-(2,2,2-trifluoroethoxy)phenyl]-1-piperazinyl]propy}isoxazole-4-carboxamide]	0.07	0.49	14.1	73	68	2.1 ± 0.7	1.7 ± 0.8	more potent	
COc1ccc(Cl)cc1N1CCN(CCCNC(=O)c2c(-c3ccccc3)noc2C)CC1 [Compound B, N-{3-[4-(5-Chloro-2-methoxyphenyl)-1-piperazinyl]propyl}-5-methyl-3-phenylisoxazole-4-carboxamide]	0.8	2.7		44	49	4.2 ± 1.0	3.0 ± 0.7	more potent	Ki [3, 7]: 23.6 nM
CCOc1ccccc1OCCN[C@H](C)Cc1ccc(OC)c(S(N)(=O)=O)c1 [Tamsulosin, tamsulosin]			0.94					very potent	Ki [2, 7]: 0.16 nM; inhibition in vivo at 0.1 mg/kg ([4]; obstructed rat, 0.1 mg/kg, 2 minutes before micturition, read-out: % inhibition of amplitude of non-effective micturition contractions): 52%; inhibition in vivo at 0.1 mg/kg ([4]; obstructed rat, 0.1 mg/kg, 2 minutes before micturition, read-out: % inhibition of frequency of non-effective micturition contractions): 61%; Amplitude of non-effective micturition contractions, After Treat. ([4]; 0.1 mg/kg): 3.7 ± 1.1 mmHg; Frequency (number) of non-effective micturition contractions, After Treat. ([4]; 0.1 mg/kg): 1.9 ± 0.7
O=C1CC2(CCCC2)CCN1CCN1CCN(c2cc(Cl)ccc2Cl)CC1 [Rec 26D/073]		0.11	11	18	25	7.5 ± 1.2	4.4 ± 0.7	poorly active	inhibition in vivo at 0.3 mg/kg [4, 8]: 16%; inhibition in vivo at 0.3 mg/kg [4, 9]: 31%; Amplitude of non-effective micturition contractions, After Treat. ([4]; 0.3 mg/kg): 6.2 ± 1.6 mmHg; Frequency (number) of non-effective micturition contractions, After Treat. ([4]; 0.3 mg/kg): 2.8 ± 0.7
O=C1CC2(CCCC2)CC(=O)N1CCN1CCN(c2cc(Cl)ccc2Cl)CC1 [Rec 26D/038]		0.13	19	21	27	7.5 ± 1.6	4.5 ± 1.2	poorly active	inhibition in vivo at 0.3 mg/kg [4, 8]: 39%; inhibition in vivo at 0.3 mg/kg [4, 9]: 38%; Amplitude of non-effective micturition contractions, After Treat. ([4]; 0.3 mg/kg): 6.6 ± 1.5 mmHg; Frequency (number) of non-effective micturition contractions, After Treat. ([4]; 0.3 mg/kg): 3.6 ± 0.7
Cc1onc(-c2ccccc2)c1C(=O)NCCCN1CCN(c2ccc(F)cc2OCC(F)(F)F)CC1 [Rec 27/0110]	0.35	18.9				6.0 ± 1.4	4.4 ± 0.8	poorly active	Ki [3, 7]: 69 nM; inhibition in vivo at 1 mg/kg [4, 10]: 21%; inhibition in vivo at 3 mg/kg [4, 10]: 53%; inhibition in vivo at 1 mg/kg [4, 11]: 27%; inhibition in vivo at 3 mg/kg [4, 11]: 49%; Amplitude of non-effective micturition contractions, After Treat. ([4]; 3.0 mg/kg): 2.3 ± 0.8 mmHg; Frequency (number) of non-effective micturition contractions, After Treat. ([4]; 3.0 mg/kg): 2.2 ± 0.7
